Experimental data taken from ChEMBL document CHEMBL3232724, “Decreasing acidity in a series of aldose reductase inhibitors: 2-Fluoro-4-(1H-pyrrol-1-yl)phenol as a scaffold for improved membrane permeation” (Bioorg Med Chem, 2014).

Experiments:
[1] = target: Aldo-keto reductase family 1 member B1 (Rattus norvegicus, UniProt P07943); assay: Inhibition of Fischer-344 rat lens ALR2 using D, L-glyceraldehyde as substrate by spectrophotometry; assay type: tissue-based, Lens of camera-type eye
[2] = target: Aldo-keto reductase family 1 member A1 (Rattus norvegicus, UniProt P51635); assay: Inhibition of Fischer-344 rat kidney ALR1 using D-glucuronate as substrate by spectrophotometry
Sequence of Aldo-keto reductase family 1 member A1 (P51635 whole entry, looked up): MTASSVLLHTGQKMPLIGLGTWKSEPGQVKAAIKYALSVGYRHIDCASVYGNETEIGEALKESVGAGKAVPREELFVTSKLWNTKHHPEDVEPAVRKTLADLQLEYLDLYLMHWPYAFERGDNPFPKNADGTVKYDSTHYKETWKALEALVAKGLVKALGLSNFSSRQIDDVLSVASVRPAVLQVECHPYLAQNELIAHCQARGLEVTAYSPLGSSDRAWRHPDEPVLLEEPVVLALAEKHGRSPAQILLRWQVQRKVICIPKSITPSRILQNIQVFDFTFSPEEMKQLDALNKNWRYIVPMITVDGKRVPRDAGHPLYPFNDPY

Rattus norvegicus = organism: Rattus norvegicus; assay: Selectivity index, ratio of IC50 for Fischer-344 rat kidney ALR1 to IC50 for Fischer-344 rat lens ALR2; assay type: tissue-based; conditions: Lens of camera-type eye
[3] = Inhibition of glucose-induced sorbitol accumulation in Wistar rat lens at 10 uM after 3 hrs by fluorescence assay (reference value: 755.27 +/- 19.7 nmol/g); assay type: functional, Lens of camera-type eye
[4] = Inhibition of glucose-induced sorbitol accumulation in Wistar rat lens at 50 uM after 3 hrs by fluorescence assay (reference value: 755.27 +/- 19.7 nmol/g); assay type: functional, Lens of camera-type eye
[5] = Octanol-water distribution coefficient, log D of the compound at pH 7.4 by shake flask method; assay type: physicochemical
[6] = Octanol-water distribution coefficient, log D of the compound at pH 7.8 by shake flask method; assay type: physicochemical
[7] = Octanol-water distribution coefficient, log D of the compound at pH 8 by shake flask method; assay type: physicochemical
[8] = Octanol-water distribution coefficient, log D of the compound at pH 8.25 by shake flask method; assay type: physicochemical
[9] = Octanol-water distribution coefficient, log D of the compound at pH 8.5 by shake flask method; assay type: physicochemical
[10] = Octanol-water distribution coefficient, log D of the compound at pH 9.2 by shake flask method; assay type: physicochemical
[11] = Octanol-water distribution coefficient, log D of the compound at pH 11 by shake flask method; assay type: physicochemical
[12] = Octanol-water distribution coefficient, log D of the compound at pH 12 by shake flask method; assay type: physicochemical
Jejunum [13] = assay: Apparent permeability coefficient in Sprague-Dawley rat jejunum at 100 uM; assay type: ADME, tissue-based
[14] = Octanol-water distribution coefficient, log D of the compound at pH 7 by shake flask method; assay type: physicochemical
Jejunum [15] = conditions: rat
[16] = target: Aldo-keto reductase family 1 member B1 (Rattus norvegicus) (UniProt P07943); assay: Inhibition of Fischer-344 rat lens ALR2 using D, L-glyceraldehyde as substrate at 100 uM by spectrophotometry; assay type: tissue-based; conditions: Lens of camera-type eye
Jejunum [17] = assay: Apparent permeability coefficient in Sprague-Dawley rat jejunum at 10 uM; assay type: ADME, tissue-based

| SMILES | IC50 [1] [µM] | IC50 [2] [µM] | inhibition [16] [%] | Ratio IC50 (Rattus norvegicus) | also measured |
| --- | --- | --- | --- | --- | --- |
| O=C(c1ccccc1)c1cc(C(=O)C(F)(F)F)n(-c2ccc(O)c(F)c2)c1 | 1.04 | 20.4 | – | 19.6 | Activity [3]: 586.08 nmol/g; Activity [4]: 462.49 nmol/g; logD [5]: 3.86; logD [6]: 3.5; logD [7]: 3.6; logD [8]: 3.3; logD [9]: 3.41; logD [10]: 2.48; logD [11]: 0.66; logD [12]: -0.38 |
| CC(C)NCC(O)COc1cccc2ccccc12 (configuration not stated) [PROPRANOLOL] | – | – | – | – | Papp (Jejunum [15]): 11.1 ucm/s |
| O=C(c1ccccc1)c1ccn(-c2cccc(O)c2)c1 | – | – | 21.5 | – | – |
| O=C(c1ccc(-c2ccccc2)cc1)c1ccn(-c2ccc(O)c(F)c2)c1 | – | – | 14.2 | – | – |
| O=C(c1cccn1-c1ccc(O)c(F)c1)C(F)(F)F | 73.8 | > 100 | – | > 1.36 | – |
| O=C(c1ccccc1)c1ccn(-c2ccc(O)cc2)c1 | 55.4 | > 100 | – | > 1.8 | – |
| O=C(c1ccccc1)c1ccn(-c2ccc(O)c(/C=N/O)c2)c1 | – | – | 35.3 | – | – |
| O=C(c1ccccc1)c1ccn(-c2ccc([N+](=O)[O-])c(/C=N/O)c2)c1 | – | – | 36.3 | – | – |
| O=C(c1ccc(OC(F)(F)F)cc1)c1ccn(-c2ccc(O)c(F)c2)c1 | 41.7 | > 100 | – | > 2.4 | – |
| O=C(c1ccccc1)c1ccn(-c2ccc(/C=N/O)c(O)c2)c1 | – | – | 33.7 | – | – |
| O=C(c1ccccc1)c1ccn(-c2ccccc2O)c1 | – | – | 16.1 | – | – |
| O=C1OC2(c3ccc(O)cc3Oc3cc(O)ccc32)c2ccccc21 [FLUORESCEIN] | – | – | – | – | Papp (Jejunum [17]): 5.2 ucm/s |

Now from value to molecule, other results behind:

| IC50 [1] [µM] | IC50 [2] [µM] | inhibition [16] [%] | SMILES | Ratio IC50 (Rattus norvegicus) | also measured |
| --- | --- | --- | --- | --- | --- |
| 0.443 | 12.1 | – | O=C(c1ccccc1)c1cc(C(=O)C(F)F)n(-c2ccc(O)c(F)c2)c1 | 27.3 | Activity [3]: 487.07 nmol/g; Activity [4]: 396.89 nmol/g; Papp (Jejunum [13]): 6.4 ucm/s; logD [5]: 3.1; logD [7]: 2.98; logD [9]: 2.62; logD [10]: 1.72; logD [11]: 0.1; logD [14]: 3.41 |
| – | – | 60.5 | O=C(c1ccccc1)c1ccn(-c2ccc(/C=N/O)c([N+](=O)[O-])c2)c1 | – | – |
| 9.23 | 26.2 | – | COc1ccc(C(=O)c2ccn(-c3ccc(O)c(F)c3)c2)cc1 | 2.84 | – |
| 24.8 | 35.5 | – | O=C(c1ccn(-c2ccc(O)c(F)c2)c1)c1ccc(Br)cc1F | 1.43 | – |
| – | – | 23.5 | O=C(c1ccccc1)c1ccn(-c2cccc(/C=N/O)c2O)c1 | – | – |
| 60.8 | > 100 | – | O=C(c1cccn1-c1ccc(O)c(F)c1)C(F)F | > 1.65 | – |
| 10.1 | 38.2 | – | O=C(c1ccccc1)c1ccn(-c2ccc(O)c(F)c2)c1 | 3.79 | – |
| – | – | 5.81 | O=C(c1ccccc1)c1ccn(-c2ccc(F)c(F)c2)c1 | – | – |
| – | – | 37.2 | O=C(c1ccccc1)c1cccn1-c1ccc(O)c(F)c1 | – | – |
| – | – | 43.7 | COc1ccc(C(=O)c2cccn2-c2ccc(O)c(F)c2)cc1 | – | – |
| 6.75 | 28.7 | – | COc1cccc(C(=O)c2ccn(-c3ccc(O)c(F)c3)c2)c1 | 4.25 | – |
